In patent US8058475B2, “Substituted cyclohexylmethyl compounds” (Gruenenthal GmbH, priority 2005, dated 2011):

Target: human μ-opiate receptor (Homo sapiens, UniProt P35372)
Experiment: Affinity for the human μ-opiate receptor ([3H]-naloxone displacement, SPA, CHO-K1 membrane preparation)
Format: binding
Details: for inhibition at 1 µM: read-out: μ-Opioid receptor, % inhibition [1 μM]; for Ki: read-out: μ-Opioid receptor, Ki

Sequence of human μ-opiate receptor (P35372 whole entry): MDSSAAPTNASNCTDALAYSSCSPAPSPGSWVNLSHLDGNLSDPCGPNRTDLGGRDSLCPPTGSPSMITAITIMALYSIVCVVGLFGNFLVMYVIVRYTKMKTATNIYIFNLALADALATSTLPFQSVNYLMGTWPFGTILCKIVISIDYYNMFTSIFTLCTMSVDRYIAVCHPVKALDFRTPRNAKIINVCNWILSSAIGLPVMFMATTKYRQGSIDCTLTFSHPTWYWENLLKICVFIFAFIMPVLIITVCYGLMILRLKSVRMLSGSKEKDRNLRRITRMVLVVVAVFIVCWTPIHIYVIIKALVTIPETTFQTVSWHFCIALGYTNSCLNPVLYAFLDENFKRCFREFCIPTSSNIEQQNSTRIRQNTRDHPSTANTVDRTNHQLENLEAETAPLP

For `Cc1cc(C(=O)NC2CCC(C(c3cccc(F)c3)N(C)C)CC2)c(C)o1` (stereo not drawn) [compound 265, 2,5-dimethyl-furan-3-carboxylic acid {4-[dimethylamino-(3-fluoro-phenyl)-methyl]-cyclohexyl}-amide], the inhibition at 1 µM was 78% and the Ki was 140 nM.

Compound `Cc1oc(-c2ccccc2)cc1C(=O)NC1CCC(C(c2cccc(F)c2)N(C)C)CC1` (stereo not drawn) [compound 266, 2-methyl-5-phenyl-furan-3-carboxylic acid {4-[dimethylamino-(3-fluoro-phenyl)-methyl]-cyclohexyl}-amide] has an inhibition at 1 µM of 78% and a Ki of 36 nM.

Work on `CN(C)C(c1cccc(F)c1)C1CCC(NC(=O)c2ccc(-c3ccccn3)s2)CC1` (stereo not drawn) [compound 267, 5-pyridin-2-yl-thiophene-2-carboxylic acid {4-[dimethylamino-(3-fluoro-phenyl)-methyl]-cyclohexyl}-amide] yielded an inhibition at 1 µM of 77% and a Ki of 150 nM.

`CCn1nc(C)c(Br)c1C(=O)NC1CCC(C(c2ccccc2)N(C)C)CC1` (stereo not drawn) [compound 268, 4-bromo-2-ethyl-5-methyl-2H-pyrazole-3-carboxylic acid [4-(dimethylamino-phenyl-methyl)-cyclohexyl]-amide] showed an inhibition at 1 µM of 76% and a Ki of 86 nM.

`CN(C)C(c1cccc(F)c1)C1CCC(NC(=O)c2ccc(F)c(Cl)c2)CC1` (stereo not drawn) [compound 269, 3-chloro-N-{4-[dimethylamino-(3-fluoro-phenyl)-methyl]-cyclohexyl}-4-fluoro-benzamide] showed an inhibition at 1 µM of 75% and a Ki of 47 nM.

Work on `CN(C)C(c1ccc(F)cc1)C1CCC(NC(=O)c2ccc(Cl)c(Cl)c2)CC1` (stereo not drawn) [compound 270, 3,4-dichloro-N-{4-[dimethylamino-(4-fluoro-phenyl)-methyl]-cyclohexyl}-benzamide] yielded an inhibition at 1 µM of 75% and a Ki of 190 nM.

`CN(C)C(c1ccc(F)cc1)C1CCC(NC(=O)c2cc(F)c(F)cc2F)CC1` (stereo not drawn) [compound 271, N-{4-[dimethylamino-(4-fluoro-phenyl)-methyl]-cyclohexyl}-2,4,5-trifluoro-benzamide] gave an inhibition at 1 µM of 75% and a Ki of 19 nM.

Work on `CN(C)C(c1ccccc1)C1CCC(NC(=O)C2CCCCC2)CC1` (stereo not drawn) [compound 272, cyclohexanecarboxylic acid [4-(dimethylamino-phenyl-methyl)-cyclohexyl]-amide] yielded an inhibition at 1 µM of 75% and a Ki of 90 nM.

`CCC(C(=O)NC1CCC(C(c2cccc(F)c2)N(C)C)CC1)c1ccccc1` (stereo not drawn) [compound 273, N-{4-[dimethylamino-(3-fluoro-phenyl)-methyl]-cyclohexyl}-2-phenyl-butyramide] showed an inhibition at 1 µM of 75% and a Ki of 81 nM.

`CN(C)C(c1cccc(F)c1)C1CCC(NC(=O)Cc2ccc(Cl)cc2)CC1` (stereo not drawn) [compound 274, 2-(4-chloro-phenyl)-N-{4-[dimethylamino-(3-fluoro-phenyl)-methyl]-cyclohexyl}-acetamide] gave an inhibition at 1 µM of 74% and a Ki of 99 nM.

With `CN(C)C(c1ccccc1)C1CCC(NC(=O)c2cccc([N+](=O)[O-])c2)CC1` (stereo not drawn) [compound 275, N-[4-(dimethylamino-phenyl-methyl)-cyclohexyl]-3-nitro-benzamide] the inhibition at 1 µM was 74% and the Ki was 100 nM.

For `CN(C)C(CCc1ccccc1)C1CCC(NC(=O)c2cc(F)ccc2F)CC1` (stereo not drawn) [compound 276, N-[4-(1-dimethylamino-3-phenyl-propyl)-cyclohexyl]-2,5-difluoro-benzamide], the inhibition at 1 µM was 74% and the Ki was 65 nM.

In the case of `CN(C)C(CCc1ccccc1)C1CCC(NC(=O)c2cccc(Br)c2)CC1` (stereo not drawn) [compound 277, 3-bromo-N-[4-(1-dimethylamino-3-phenyl-propyl)-cyclohexyl]-benzamide], the inhibition at 1 µM is reported as 74% and the Ki is reported as 74 nM.

`CN(C)C(c1cccc(F)c1)C1CCC(NC(=O)c2c(F)cccc2F)CC1` (stereo not drawn) [compound 278, N-{4-[dimethylamino-(3-fluoro-phenyl)-methyl]-cyclohexyl}-2,6-difluoro-benzamide] gave an inhibition at 1 µM of 74% and a Ki of 86 nM.

In the case of `Cc1cc(C(=O)NC2CCC(C(c3ccccc3)N(C)C)CC2)c(C)o1` (stereo not drawn) [compound 279, 2,5-dimethyl-furan-3-carboxylic acid [4-(dimethylamino-phenyl-methyl)-cyclohexyl]-amide], the inhibition at 1 µM is reported as 74% and the Ki is reported as 140 nM.

In the case of `CN(C)C(c1ccc(F)cc1)C1CCC(NC(=O)c2ccc(F)c(Cl)c2)CC1` (stereo not drawn) [compound 280, 3-chloro-N-{4-[dimethylamino-(4-fluoro-phenyl)-methyl]-cyclohexyl}-4-fluoro-benzamide], the inhibition at 1 µM is reported as 73% and the Ki is reported as 310 nM.

Compound `CN(C)C(c1ccccc1)C1CCC(NC(=O)c2cc(F)ccc2C(F)(F)F)CC1` (stereo not drawn) [compound 281, N-[4-(dimethylamino-phenyl-methyl)-cyclohexyl]-5-fluoro-2-trifluoromethyl-benzamide] has an inhibition at 1 µM of 73% and a Ki of 46 nM.

Compound `Cc1cc(C(=O)NC2CCC(C(c3ccccc3)N(C)C)CC2)no1` (stereo not drawn) [compound 282, 5-methyl-isoxazole-3-carboxylic acid [4-(dimethylamino-phenyl-methyl)-cyclohexyl]-amide] has an inhibition at 1 µM of 73% and a Ki of 110 nM.

`Cc1nc(-c2ccc3c(c2)CCO3)sc1C(=O)NC1CCC(C(c2cccs2)N(C)C)CC1` (stereo not drawn) [compound 283, 2-(2,3-dihydro-benzofuran-5-yl)-4-methyl-thiazole-5-carboxylic acid [4-(dimethylamino-thiophen-2-yl-methyl)-cyclohexyl]-amide] showed an inhibition at 1 µM of 72% and a Ki of 150 nM.

Work on `CN(C)C(c1ccccc1)C1CCC(NC(=O)COc2ccc(Cl)cc2)CC1` (stereo not drawn) [compound 284, 2-(4-chloro-phenoxy)-N-[4-(dimethylamino-phenyl-methyl)-cyclohexyl]-acetamide] yielded an inhibition at 1 µM of 72% and a Ki of 63 nM.

`Cc1oc(-c2ccc(Cl)cc2)cc1C(=O)NC1CCC(C(c2cccc(F)c2)N(C)C)CC1` (stereo not drawn) [compound 285, 5-(4-chloro-phenyl)-2-methyl-furan-3-carboxylic acid {4-[dimethylamino-(3-fluoro-phenyl)-methyl]-cyclohexyl}-amide] gave an inhibition at 1 µM of 71%.

`CN(C)C(c1ccccc1)C1CCC(NC(=O)c2ccccc2Br)CC1` (stereo not drawn) [compound 286, 2-bromo-N-[4-(dimethylamino-phenyl-methyl)-cyclohexyl]-benzamide] showed an inhibition at 1 µM of 71% and a Ki of 54 nM.

`COc1cccc(OC)c1C(=O)NC1CCC(C(c2ccccc2)N(C)C)CC1` (stereo not drawn) [compound 287, N-[4-(dimethylamino-phenyl-methyl)-cyclohexyl]-2,6-dimethoxy-benzamide] was tested, and the inhibition at 1 µM was 71% and the Ki was 150 nM.

For `CN(C)C(c1ccccc1)C1CCC(NC(=O)C2CCCC2)CC1` (stereo not drawn) [compound 288, cyclopentanecarboxylic acid [4-(dimethylamino-phenyl-methyl)-cyclohexyl]-amide], the inhibition at 1 µM was 70% and the Ki was 160 nM.

Compound `CN(C)C(c1ccccc1)C1CCC(NC(=O)c2csc(-c3ccc4c(c3)CCO4)n2)CC1` (stereo not drawn) [compound 289, 2-(2,3-dihydro-benzofuran-5-yl)-thiazole-4-carboxylic acid [4-(dimethylamino-phenyl-methyl)-cyclohexyl]-amide] has an inhibition at 1 µM of 70% and a Ki of 78 nM.

In the case of `CN(C)C(c1cccc(F)c1)C1CCC(NC(=O)c2ccc3nsnc3c2)CC1` (stereo not drawn) [compound 290, benzo[1,2,5]thiadiazole-5-carboxylic acid {4-[dimethylamino-(3-fluoro-phenyl)-methyl]-cyclohexyl}-amide], the inhibition at 1 µM is reported as 70%.

`CN(C)C(c1cccs1)C1CCC(CNC(=O)Cc2cccs2)CC1` (stereo not drawn) [compound 291, N-[4-(dimethylamino-thiophen-2-yl-methyl)-cyclohexylmethyl]-2-thiophen-2-yl-acetamide] was tested, and the inhibition at 1 µM was 102%.

`CN(C)C(c1ccccc1)C1CCC(CNC(=O)c2csc3ccccc23)CC1` (stereo not drawn) [compound 292, benzo[b]thiophene-3-carboxylic acid [4-(dimethylamino-phenyl-methyl)-cyclohexylmethyl]-amide] gave an inhibition at 1 µM of 102% and a Ki of 1.3 nM.

Work on `COc1c(C(=O)NCC2CCC(C(c3ccccc3)N(C)C)CC2)csc1Cl` (stereo not drawn) [compound 293, 5-chloro-4-methoxy-thiophene-3-carboxylic acid [4-(dimethylamino-phenyl-methyl)-cyclohexylmethyl]-amide] yielded an inhibition at 1 µM of 102% and a Ki of 4.6 nM.

`CN(C)C(c1cccc(F)c1)C1CCC(CNC(=O)CC(C)(C)C)CC1` (stereo not drawn) [compound 295, N-{4-[dimethylamino-(3-fluoro-phenyl)-methyl]-cyclohexylmethyl}-3,3-dimethyl-butyramide] was tested, and the inhibition at 1 µM was 101% and the Ki was 7.3 nM.

In the case of `CN(C)C(c1cccs1)C1CCC(CNC(=O)c2ccccc2Br)CC1` (stereo not drawn) [compound 296, 2-bromo-N-[4-(dimethylamino-thiophen-2-yl-methyl)-cyclohexylmethyl]-benzamide], the inhibition at 1 µM is reported as 100% and the Ki is reported as 0.3 nM.

`CN(C)C(c1cccs1)C1CCC(CNC(=O)C(c2ccccc2)c2ccccc2)CC1` (stereo not drawn) [compound 297, N-[4-(dimethylamino-thiophen-2-yl-methyl)-cyclohexylmethyl]-2,2-diphenyl-acetamide] was tested, and the inhibition at 1 µM was 100% and the Ki was 4 nM.

Work on `CN(C)C(c1ccccc1)C1CCC(CNC(=O)CC(C)(C)C)CC1` (stereo not drawn) [compound 298, N-[4-(dimethylamino-phenyl-methyl)-cyclohexylmethyl]-3,3-dimethyl-butyramide] yielded an inhibition at 1 µM of 100% and a Ki of 4 nM.

In the case of `CSc1ncccc1C(=O)NCC1CCC(C(c2ccccc2)N(C)C)CC1` (stereo not drawn) [compound 299, N-[4-(dimethylamino-phenyl-methyl)-cyclohexylmethyl]-2-methylsulfanyl-nicotinamide], the inhibition at 1 µM is reported as 100% and the Ki is reported as 1 nM.

`COc1cccc(OC)c1C(=O)NCC1CCC(C(c2cccs2)N(C)C)CC1` (stereo not drawn) [compound 300, N-[4-(dimethylamino-thiophen-2-yl-methyl)-cyclohexylmethyl]-2,6-dimethoxy-benzamide] was tested, and the inhibition at 1 µM was 99% and the Ki was 1.4 nM.

Compound `CN(C)C(c1cccs1)C1CCC(CNC(=O)CC(C)(C)C)CC1` (stereo not drawn) [compound 301, N-[4-(dimethylamino-thiophen-2-yl-methyl)-cyclohexylmethyl]-3,3-dimethyl-butyramide] has an inhibition at 1 µM of 99% and a Ki of 2.7 nM.
